# Experimental data as given in patent publication US9283208B2, “Medicaments and methods for treating cancer” (NIIKI PHARMA INC., priority 2011, dated 2016).
# Marks after values point to notes of the source that are not given here.
# What was measured:
# certain types of cancer = conditions: See U.S. Pat. No. 7,338,946; cited from earlier work
# [1] = tested on: patients with advanced solid tumors refractory to treatment; test: Phase I dose-escalation trial (US): safety, tolerability, DLT and MTD; type: in vivo, human
# Text: (§1) Two Phase I dose-escalation clinical studies involving sodium trans-[tetrachlorobis(1H-indazole)ruthenate (III)] (“test drug”) have been conducted. The primary objective of both studies is to determine the safety, tolerability and maximal tolerated dose (MTD) of the test drug. Secondary objectives are to estimate the PK parameters, to identify any preliminary evidence of anti-tumor activity of the test drug in patients with advanced cancers, and to explore pharmacodynamic (PD) endpoints which may be of use in the further development of the test drug.
# (§2) In the first trial which has been conducted in two centers in the US, the “test drug” was given intravenously once a week, i.e., on days 1, 8, and 15 of each 28-day cycle to patients with advanced solid tumors refractory to treatment. The patients had advanced solid tumors that had been heavily treated previously, had failed an average of 7 previous lines of chemotherapy, and had progressing disease at the time of entry into the trial. Standard 3+3 design with expanded cohort up to 25 patients at the maximal tolerated dose (MTD).
# Major Inclusion/Exclusion Criteria: • Patients≧18 years with histologically or cytologically confirmed advanced solid tumors refractory to standard therapies • ECOG PS 0 or 1 • Adequate hematologic, hepatic and renal function • No symptomatic CNS metastases, no primary brain tumors • No evidence of ischemia, recent MI, or significant abnormality on ECG • No Peripheral neuropathy ≧Grade 2 • Minimum life expectancy ≧12 weeks
# Definition of Dose Limiting Toxicity (DLT):
# Toxicity severity graded according to the CTCAE (ver. 3.0); occurring during Cycle 1 and related to test drug: • Grade 4 neutropenia for ≧7 days • Febrile neutropenia • Grade 4 thrombocytopenia or Grade • ≧Grade 2 neurotoxicity • ≧Grade 2 cardiotoxicity • Grade 2 hypersensitivity reaction or infusion reaction • Any other non-hematologic Grade 3 or 4 toxicity other than nausea/vomiting or alopecia • Inability to complete the first cycle due to any toxicity thought to be related to test drug.
# [2] = tested on: patients with advanced solid tumors refractory to treatment; test: Phase I dose-escalation trial (UK): adverse reactions; type: in vivo, human; conditions: dose of 320 mg/m^2 and above
# Description: (§3) The second trial was conducted in two centers in the United Kingdom (UK) with the test drug being administered on days 1 through 4 of each 21-day cycle to patients with advanced solid tumors refractory to treatment. The patients had been heavily pre-treated and had failed an average of 3 previous lines of chemotherapy. Dose escalation progressed from 20 to 500 mg/m^2.
# (§4) Thereafter, in the US trial, in some patients, premedication of decadron (dexamethasone) was administered, with or without 5HT3 antagonists (serotonin antagonists) like ondansetron and granisetron. The decadron was given to prevent fever, at 4-10 mg IV. […] None of the patients premedicated with decadron had any incidence of infusion-related fever.
# [3] = Pharmacokinetics in patients: plasma total ruthenium; type: in vivo, human; conditions: for C1D8 Hour 0 ng/mL Ru / C2D1 Hour 0 ng/mL Ru: pre-infusion trough
# Description: (§5) Pharmacokinetics: PK samples were obtained 0, 0.25, 0.5, 1, 2, 4, 6-8, 10-12, and 24 hours after the start of the infusion on Cycle 1 Day 1 as well as pre-infusion on Cycle 1 Day 8 and Cycle 2 Day 1. Plasma and urine were analyzed for total ruthenium [Ru] (free and bound). […] Peak plasma Ru levels were achieved by hour 2 (FIG. 2A). […] The estimated T½ is 91.4-112 hours.
# [4] = Pharmacokinetics in patients: urinary excretion of ruthenium; type: in vivo, human; conditions: in the 24 hours following Cycle 1 Day 1 dosing
# Description: as §5
# [5] = tested on: advanced solid tumors refractory to treatment; test: Phase I dose-escalation trial (UK): anti-tumor effect; type: in vivo, human
# Text: as §1, §3
# [6] = tested on: advanced solid tumors refractory to treatment; test: Phase I dose-escalation trial (US): anti-tumor activity (partial response or stable disease); type: in vivo, human
# Text: as §1, §2
# 36 pts completed ≧one cycle of therapy and are evaluable to assess antitumor efficacy. […] All patients had PD at study entry.
# [7] = tested on: patients with advanced solid tumors refractory to treatment; test: Infusional fever with or without steroid premedication (US trial); type: in vivo, human
# Description: as §4
# [8] = US trial, IV once a week on days 1, 8, 15 of 28-day cycle
# [9] = 320 mg/m^2, total drug 630 mg, NET (carcinoid tumor of small intestine), 3 prior systemic therapies
# [10] = 320 mg/m^2, total drug 630 mg, NET (carcinoid tumor of small intestine), 3 prior systemic therapies, listed as Sodium trans-[tetrachlorobis(1H-indazole)ruthenate (III)]
compound,measurement,setting,value
"[Cl-].[Cl-].[Cl-].[Cl-].[Ru+3].c1ccc2[nH][nH+]cc2c1.c1ccc2[nH]ncc2c1.c1ccc2[nH]ncc2c1 [indazolium trans-[tetrachlorobis(1H-indazole)ruthenate (III)], reference compound]",inducing apoptosis in certain types of cancer,certain types of cancer,highly potent
"[Cl][Ru-]([Cl])([Cl])[Cl].[Na+].c1ccc2[nH]ncc2c1.c1ccc2[nH]ncc2c1 [test drug, sodium trans-[tetrachlorobis(1H-indazole)ruthenate (III)]]",Patients w/ DLT,"[1]; 320 mg/m^2, 7 patients dosed",1
same,major adverse event related to the test drug,"[1]; 320 mg/m^2 on days 1, 8, 15 of 28-day cycle, carcinoid tumor patient treated over 100 weeks",No major adverse event
same,Patients w/ DLT,"[1]; 625 mg/m^2, 6 patients dosed",1
same,Patients w/ DLT,"[1]; 780 mg/m^2, 9 patients dosed",3
same,DLT Seen at 780 mg/m^2,"[1]; 780 mg/m^2, patient, not premedicated with steroids",A person had an infusion reaction consisting of fever
same,time for Grade 2 creatinine elevation to return to baseline,"[1]; 780 mg/m^2, person one",within 1 week.
same,DLT Seen at 780 mg/m^2,"[1]; 780 mg/m^2, person one, following Cycle 1 Day 1 dosing, fatigue",Grade 1 fatigue following Cycle 1 Day 1 dosing associated
same,DLT Seen at 780 mg/m^2,"[1]; 780 mg/m^2, person one, following Cycle 1 Day 1 dosing, nausea","person one had Grade 2 nausea, Grade 1 vomiting,"
same,time for Grade 2 creatinine elevation to return to baseline,"[1]; 780 mg/m^2, person two",≤ 3 weeks.
same,DLT dose,[1]; [8],780 mg/m^2
same,maximal tolerated dose (MTD),[1]; [8],625 mg/m^2
same,adverse reactions,[2],fever and chill were seen
same,C1D1 Hour 24 ng/mL Ru,"[3]; 20 mg/m^2, plasma total Ru",1366 ng/mL Ru
same,C1D8 Hour 0 ng/mL Ru,"[3]; 20 mg/m^2, plasma total Ru",528 ng/mL Ru
same,C2D1 Hour 0 ng/mL Ru,"[3]; 20 mg/m^2, plasma total Ru",670 ng/mL Ru
same,C1D1 Hour 24 ng/mL Ru,"[3]; 40 mg/m^2, plasma total Ru",2884 ng/mL Ru
same,C1D8 Hour 0 ng/mL Ru,"[3]; 40 mg/m^2, plasma total Ru",1197 ng/mL Ru
same,C2D1 Hour 0 ng/mL Ru,"[3]; 40 mg/m^2, plasma total Ru",1472 ng/mL Ru
same,C1D1 Hour 24 ng/mL Ru,"[3]; 80 mg/m^2, plasma total Ru",4831 ng/mL Ru
same,C1D1 Hour 24 ng/mL Ru,"[3]; 160 mg/m^2, plasma total Ru",4639 ng/mL Ru
same,C1D8 Hour 0 ng/mL Ru,"[3]; 160 mg/m^2, plasma total Ru",4000 ng/mL Ru
same,C2D1 Hour 0 ng/mL Ru,"[3]; 160 mg/m^2, plasma total Ru",6588 ng/mL Ru
same,C1D1 Hour 24 ng/mL Ru,"[3]; 320 mg/m^2, plasma total Ru",20033 ng/mL Ru
same,C1D8 Hour 0 ng/mL Ru,"[3]; 320 mg/m^2, plasma total Ru",7667 ng/mL Ru
same,C2D1 Hour 0 ng/mL Ru,"[3]; 320 mg/m^2, plasma total Ru",10126 ng/mL Ru
same,C1D1 Hour 24 ng/mL Ru,"[3]; 420 mg/m^2, plasma total Ru",25921 ng/mL Ru
same,C1D8 Hour 0 ng/mL Ru,"[3]; 420 mg/m^2, plasma total Ru",9595 ng/mL Ru
same,C2D1 Hour 0 ng/mL Ru,"[3]; 420 mg/m^2, plasma total Ru",14698 ng/mL Ru
same,C1D1 Hour 24 ng/mL Ru,"[3]; 500 mg/m^2, plasma total Ru",28070 ng/mL Ru
same,C1D8 Hour 0 ng/mL Ru,"[3]; 500 mg/m^2, plasma total Ru",11880 ng/mL Ru
same,C2D1 Hour 0 ng/mL Ru,"[3]; 500 mg/m^2, plasma total Ru",13000 ng/mL Ru
same,C1D1 Hour 24 ng/mL Ru,"[3]; 625 mg/m^2, plasma total Ru",35216 ng/mL Ru
same,C1D8 Hour 0 ng/mL Ru,"[3]; 625 mg/m^2, plasma total Ru",12303 ng/mL Ru
same,C2D1 Hour 0 ng/mL Ru,"[3]; 625 mg/m^2, plasma total Ru",14363 ng/mL Ru
same,C1D1 Hour 24 ng/mL Ru,"[3]; 780 mg/m^2, plasma total Ru",43105 ng/mL Ru
same,C1D8 Hour 0 ng/mL Ru,"[3]; 780 mg/m^2, plasma total Ru",17001 ng/mL Ru
same,C2D1 Hour 0 ng/mL Ru,"[3]; 780 mg/m^2, plasma total Ru",22125 ng/mL Ru
same,dose proportionality of Cmax and AUC0-168,[3]; 20 to 780 mg/m^2,good dose proportionality
same,time by which peak plasma Ru levels were achieved,"[3]; after start of infusion, Cycle 1 Day 1",≤ 2 h
same,accumulation of Ru following dosing,[3]; noted by Cycle 1 Day 8 and Cycle 2 Day 1 levels,There is accumulation of Ru following dosing
same,estimated T½,"[3]; plasma total Ru, patients",91.4 to 112 h
same,inducing apoptosis in certain types of cancer,certain types of cancer,highly potent
same,urinary excretion of the test drug derived ruthenium,[4],low urinary excretion
same,# weeks of treatment,"[5]; Patient 1, 20 mg/m^2, Esophageal",2 weeks
same,# weeks of treatment,"[5]; Patient 2, 40 mg/m^2, Head & Neck",4 weeks
same,Anti-tumor effect (best response),"[5]; Patient 2, 40 mg/m^2 days 1 through 4 of 21-day cycle, Head & Neck",Stable disease
same,# weeks of treatment,"[5]; Patient 3, 80 mg/m^2, Mesothelioma",2 weeks
same,# weeks of treatment,"[5]; Patient 4, 160 mg/m^2, Cecum",2 weeks
same,# weeks of treatment,"[5]; Patient 5, 320 mg/m^2, Anal",1 weeks
same,# weeks of treatment,"[5]; Patient 6, 500 mg/m^2, Rectal",4 weeks
same,Anti-tumor effect (best response),"[5]; Patient 6, 500 mg/m^2 days 1 through 4 of 21-day cycle, Rectal",Stable disease
same,# weeks of treatment,"[5]; Patient 7, 500 mg/m^2, Esophageal",2 weeks
same,Patients replaced in due to PD in Cycle 1,"[6]; 320 mg/m^2, 7 patients dosed",1
same,Duration of therapy,"[6]; 320 mg/m^2, total drug 531 mg, NSCLC, 7 prior systemic therapies",16 weeks
same,Duration of therapy,"[6]; 320 mg/m^2, total drug 618 mg, NSCLC, 4 prior systemic therapies",16 weeks
same,Duration of therapy,[6]; [9],100+ weeks
same,Response,[6]; [9],PR (partial response (PR))
same,Duration of therapy,[6]; [10],over 100 weeks
same,Response,[6]; [10],tumor regression and partial response
same,Patients replaced in due to PD in Cycle 1,"[6]; 420 mg/m^2, 5 patients dosed",2
same,Duration of therapy,"[6]; 420 mg/m^2, total drug 832 mg, NET, 0 prior systemic therapies (failed 4 prior chemo- and Yttrium-embolization procedures)",24 weeks
same,Duration of therapy,"[6]; 500 mg/m^2, total drug 890 mg, Unknown primary, 2 prior systemic therapies",22 weeks
same,Duration of therapy,"[6]; 625 mg/m^2, total drug 1175 mg, GE Junction, 3 prior systemic therapies",12+ weeks
same,Duration of therapy,"[6]; 625 mg/m^2, total drug 1190 mg, CRC, 3 prior systemic therapies",12 weeks
same,Patients replaced in due to PD in Cycle 1,"[6]; 780 mg/m^2, 9 patients dosed",1
same,Duration of therapy,"[6]; 780 mg/m^2, total drug 1450 mg, Sarcoma, 3 prior systemic therapies",16 weeks
same,Duration of therapy,"[6]; 780 mg/m^2, total drug 1544 mg, NET, 1 prior systemic therapy",27+ weeks
same,minimum effective dosage for general use of treating cancer,[6]; human dose escalating clinical trial,320 mg/m^2
same,# with fever,"[7]; 320 mg/m^2, no steroid premedication, 3 patients",0
same,# with fever,"[7]; 320 mg/m^2, steroid premedication, 4 patients",0
same,# with fever,"[7]; 420 mg/m^2, no steroid premedication, 3 patients, one had fever but then none after premed of additional doses",2*
same,# with fever,"[7]; 420 mg/m^2, steroid premedication, 2 patients",0
same,# with fever,"[7]; 500 mg/m^2, no steroid premedication, 1 patient",1
same,# with fever,"[7]; 500 mg/m^2, steroid premedication, 2 patients",0
same,# with fever,"[7]; 625 mg/m^2, no steroid premedication, 8 patients",1
same,# with fever,"[7]; 625 mg/m^2, steroid premedication, 10 patients",0
same,# with fever,"[7]; 780 mg/m^2, no steroid premedication, 3 patients",1
same,# with fever,"[7]; 780 mg/m^2, steroid premedication, 6 patients",0
same,incidence of fever or chill on intravenous infusion,[7]; at therapeutically effective doses,higher incidence of fever or chill
same,infusional fever,"[7]; patients without premedication, US trial",high likelihood of infusional fever
